Measurements published in article PMC10202811 (Nature Medicine, 2023).
Where two headings read alike, the source gives them in different places.

Test: Plasma pharmacokinetics of lorlatinib at steady state (LC-MS/MS, non-compartmental analysis)
Type: in vivo, human
Details: human; for Cmax: read-out: Cmax; for Tmax: read-out: Tmax
Description: Lorlatinib was isolated from human plasma by a liquid-iquid extraction procedure. […] A linear-log trapezoidal method was used [NT] A best-fit method was used to estimate terminal elimination and to extrapolate any plasma concentration versus time profiles to compute [NT].

[1] = in vivo, 115 mg/m2, Cycle 1 Day 1, Cohort B2, 115 mg/m2 per dose
[2] = in vivo, 115 mg/m2, Cycle 1 Day 1, Cohort A1, 115 mg/m2 per dose, individual patients
[3] = in vivo, 115 mg/m2, Cycle 1 Day 1, patient N0773, Cohort B2, 115 mg/m2 per dose, Dose 75
[4] = in vivo, 115 mg/m2, Cycle 1 Day 15, Cohort A1, 115 mg/m2 per dose, individual patients
[5] = in vivo, 115 mg/m2, Cycle 1 Day 15, patient N0773, Cohort B2, 115 mg/m2 per dose, Dose 75
[6] = plasma, oral, 45 mg/m2, Cohort A1, 45 mg/m2 per dose, C1D15, Geometric Mean, N 3
[7] = plasma, oral, 45 mg/m2, Cohort A1, 45 mg/m2 per dose, C1D15, Median, N 3
[8] = plasma, oral, 45 mg/m2, Cycle 1 Day 1, Cohort A1, 45 mg/m2 per dose, individual patients
[9] = plasma, oral, 60 mg/m2, Cohort A1, 60 mg/m2 per dose, C1D15, Median, N 3

C[C@H]1Oc2cc(cnc2N)-c2c(nn(C)c2C#N)CN(C)C(=O)c2ccc(F)cc21 [Lorlatinib, (10R)-7-amino-12-fluoro-2,10,16-trimethyl-15-oxo-10,15,16,17-tetrahydro-2H-8,4-(metheno)pyrazolo[4,3-h][2,5,11]-benzoxadiazacyclotetradecine-3-carbonitrile]
AUC (in vivo, 115 mg/m2, Cycle 1 Day 1, Cohort B2, 115 mg/m2 per dose, read-out: AUCall): 17700 ng·h/mL | Cmax [1]: 2320 ng/mL | Tmax [1]: 1 h | AUC(0-t) [2]: 14700 ng·h/mL | MRT last [2]: 8.5 h | AUC (in vivo, 115 mg/m2, Cycle 1 Day 1, Cohort A1, 115 mg/m2 per dose, individual patients, read-out: AUCall): 14700 ng·h/mL | Cmax [2]: 1440 ng/mL | Tmax [2]: 2 h | AUC(0-t) [3]: 10800 ng·h/mL | MRT last [3]: 8.24 h | AUC (in vivo, 115 mg/m2, Cycle 1 Day 1, patient N0773, Cohort B2, 115 mg/m2 per dose, Dose 75, read-out: AUCall): 10800 ng·h/mL | Cmax [3]: 1660 ng/mL | MRT inf (in vivo, 115 mg/m2, Cycle 1 Day 15, Cohort A1, 115 mg/m2 per dose, read-out: MRTINF_obs): 11.7 h | MRT inf (in vivo, 115 mg/m2, Cycle 1 Day 15, Cohort A1, 115 mg/m2 per dose, read-out: MRTINF_pred): 11.7 h | MRT inf (in vivo, 115 mg/m2, Cycle 1 Day 15, Cohort B2, 115 mg/m2 per dose, read-out: MRTINF_obs): 13.5 h | MRT inf (in vivo, 115 mg/m2, Cycle 1 Day 15, Cohort B2, 115 mg/m2 per dose, read-out: MRTINF_pred): 13.5 h | Tmax (in vivo, 115 mg/m2, Cycle 1 Day 15, Cohort B2, 115 mg/m2 per dose): 1 h | AUC(0-t) [4]: 8210 ng·h/mL | AUC(0-inf) (in vivo, 115 mg/m2, Cycle 1 Day 15, Cohort A1, 115 mg/m2 per dose, individual patients, read-out: AUCINF_obs): 10800 ng·h/mL | AUC(0-inf) (in vivo, 115 mg/m2, Cycle 1 Day 15, Cohort A1, 115 mg/m2 per dose, individual patients, read-out: AUCINF_pred): 10700 ng·h/mL | AUC (in vivo, 115 mg/m2, Cycle 1 Day 15, Cohort A1, 115 mg/m2 per dose, individual patients, read-out: AUC_TAU): 8210 ng·h/mL | AUC (in vivo, 115 mg/m2, Cycle 1 Day 15, Cohort A1, 115 mg/m2 per dose, individual patients, read-out: AUCall): 8210 ng·h/mL | Cmax [4]: 1350 ng/mL | MRT inf (in vivo, 115 mg/m2, Cycle 1 Day 15, Cohort A1, 115 mg/m2 per dose, individual patients, read-out: MRTINF_obs): 15.8 h | MRT inf (in vivo, 115 mg/m2, Cycle 1 Day 15, Cohort A1, 115 mg/m2 per dose, individual patients, read-out: MRTINF_pred): 15.7 h | AUC(0-t) [5]: 5370 ng·h/mL | AUC(0-inf) (in vivo, 115 mg/m2, Cycle 1 Day 15, patient N0773, Cohort B2, 115 mg/m2 per dose, Dose 75, read-out: AUCINF_obs): 6990 ng·h/mL | AUC(0-inf) (in vivo, 115 mg/m2, Cycle 1 Day 15, patient N0773, Cohort B2, 115 mg/m2 per dose, Dose 75, read-out: AUCINF_pred): 6860 ng·h/mL | AUC (in vivo, 115 mg/m2, Cycle 1 Day 15, patient N0773, Cohort B2, 115 mg/m2 per dose, Dose 75, read-out: AUC_TAU): 6950 ng·h/mL | AUC (in vivo, 115 mg/m2, Cycle 1 Day 15, patient N0773, Cohort B2, 115 mg/m2 per dose, Dose 75, read-out: AUCall): 5370 ng·h/mL | Cmax [5]: 1780 ng/mL | MRT inf (in vivo, 115 mg/m2, Cycle 1 Day 15, patient N0773, Cohort B2, 115 mg/m2 per dose, Dose 75, read-out: MRTINF_obs): 4.18 h | MRT inf (in vivo, 115 mg/m2, Cycle 1 Day 15, patient N0773, Cohort B2, 115 mg/m2 per dose, Dose 75, read-out: MRTINF_pred): 3.73 h | AUC (in vivo, 115 mg/m2, steady state, Cohort A1, 115 mg/m^2 QD, (CV), read-out: AUCtau): 8640 ng·h/mL | Cmax (in vivo, 115 mg/m2, steady state, Cohort A1, 115 mg/m^2 QD, (CV)): 1210 ng/mL | Tmax (in vivo, 115 mg/m2, steady state, Cohort A1, 115 mg/m^2 QD): 1.5 h | AUC (in vivo, 115 mg/m2, steady state, Cohort B2 (with topotecan/cyclophosphamide), 115 mg/m^2 QD, (CV), read-out: AUCtau): 7950 ng·h/mL | Cmax (in vivo, 115 mg/m2, steady state, Cohort B2 (with topotecan/cyclophosphamide), 115 mg/m^2 QD, (CV)): 1460 ng/mL | Tmax (in vivo, 115 mg/m2, steady state, Cohort B2 (with topotecan/cyclophosphamide), 115 mg/m^2 QD): 1 h | AUC (in vivo, 150 mg per dose, Cycle 1 Day 1, Cohort A2, 150 mg per dose, read-out: AUCall): 8360 ng·h/mL | AUC (in vivo, 150 mg per dose, Cycle 1 Day 15, Cohort A2, 150 mg per dose, read-out: AUCall): 8300 ng·h/mL | AUC (in vivo, 150 mg, Cycle 1 Day 15, Cohort A2, 150 mg per dose, read-out: AUC_TAU): 8300 ng·h/mL | AUC (plasma, oral, 45 mg/m2, Cohort A1, 45 mg/m2 per dose, C1D15, Geometric Mean, N 3, read-out: AUC_TAU): 2470 ng·h/mL | Cmax [6]: 355 ng/mL | Tmax [6]: 1.26 h | AUC (plasma, oral, 45 mg/m2, Cohort A1, 45 mg/m2 per dose, C1D15, Median, N 3, read-out: AUC_TAU): 3220 ng·h/mL | Cmax [7]: 287 ng/mL | Tmax [7]: 1 h | Tmax (plasma, oral, 45 mg/m2, Cohort A1, 45 mg/m2 per dose, C1D15, individual patient): 1 h | MRT last [8]: 7.18 h | Tmax [8]: 1 h | Tmax (plasma, oral, 45 mg/m2, Cycle 1 Day 15, Cohort A1, 45 mg/m2 per dose, individual patients): 1 h | AUC (plasma, oral, 45 mg/m^2, steady state (cycle 1, day 15), Cohort A1, 45 mg/m^2 QD, (CV), read-out: AUCtau): 2470 ng·h/mL | Cmax (plasma, oral, 45 mg/m^2, steady state (cycle 1, day 15), Cohort A1, 45 mg/m^2 QD, (CV)): 354 ng/mL | Tmax (plasma, oral, 45 mg/m^2, steady state (cycle 1, day 15), Cohort A1, 45 mg/m^2 QD): 1 h | AUC (plasma, oral, 60 mg/m2, Cohort A1, 60 mg/m2 per dose, C1D15, Geometric Mean, N 3, read-out: AUC_TAU): 3930 ng·h/mL | Cmax (plasma, oral, 60 mg/m2, Cohort A1, 60 mg/m2 per dose, C1D15, Geometric Mean, N 3): 492 ng/mL | AUC (plasma, oral, 60 mg/m2, Cohort A1, 60 mg/m2 per dose, C1D15, Median, N 3, read-out: AUC_TAU): 4140 ng·h/mL | Cmax [9]: 558 ng/mL | Tmax [9]: 2 h | AUC (plasma, oral, 60 mg/m2, Cohort A1, 60 mg/m2 per dose, C1D15, individual patient, read-out: AUC_TAU): 4140 ng·h/mL
